According to patent publication US20090176839A1, “FORMULATIONS OF 3-(6-(1-(2,2-DIFLUOROBENZO[D][1,3]DIOXOL-5-YL) CYCLOPROPANECARBOXAMIDO)-3-METHYLPYRIDIN-2-YL)BENZOIC ACID” (priority 2007, published 2009):
pIC50: −log10 of the molar value. “Also recorded” adds a separate entry of the source.

Key:
[1] = Acute oral toxicity study in mice; conditions: mouse, in vivo, po
Description: (§1) The intended clinical route of administration is oral, thus oral toxicity studies were done in mice, rats and dogs. […] Effects of repeat oral dosing were assessed in rats and dogs in preliminary 7-day toxicity studies followed by a 14-day GLP1 toxicity studies.

mice = test: Acute oral toxicity study in mice; conditions: mice; single oral doses 500, 1000 or 2000 mg/kg
Description: as §1

[2] = Acute oral toxicity study in rats; conditions: rat, in vivo, po
Description: as §1

rats [3] = test: Acute oral toxicity study in rats; conditions: rats; single oral doses 500, 1000 or 2000 mg/kg
Description: as §1

[4] = Toxicokinetics in acute oral toxicity study in rats; assay type: in vivo
Excerpt: Compound 1 was also well absorbed in rats with time to reach maximum plasma concentrations(tmax) ranging from 4.0 to 24.0 hr.

in vivo [5] = test: in vivo; parameters: species or system rats; conditions: rat
Description: (§2) The animals were dosed orally with the vehicle (0.5% methylcellulose in water), or 15, 75, or 150 mg/kg Compound 1 twice daily for 7 consecutive days. The two daily doses were administered approximately 10 hours apart and the dose volume was 5 mL/kg/b.i.d. for all dose groups. At the end of the dosing period, all animals were euthanized and necropsied. Satellite animals (6/sex/Groups 2-4) were dosed in the same manner as the toxicity animals and plasma samples were collected on Days 1 and 7 for toxicokinetic (TK) analysis. Parameters evaluated during the study were: viability, clinical observations, body weights, feed consumption, clinical pathology (termination), organ weights, macroscopic observations and microscopic pathology.

rats [6] = test: in vivo; conditions: rat
Description: as §2

[7] = Toxicokinetics in 7-day dose range finding study in rats; assay type: in vivo; conditions: 300 mg/kg/day; for Cmax: rat, plasma, oral
Description: as §2
The plasma AUC0-24 data on Day 1 was consistent with previously conducted single dose studies of Compound 1 in the rat.

[8] = Toxicokinetics in 14-day oral toxicity study in rats; conditions: rat, in vivo, 600 mg/kg/day
Excerpt: (§3) There were no major differences noted in TK parameters between males and females, or when comparing study Day 1 to study Day 14.

[9] = Toxicokinetics in 14-day oral toxicity study in dogs; conditions: dog, in vivo, 200 mg/kg/day
Excerpt: as §3

TP receptor = biological target: T1, TP receptor (Rattus norvegicus, UniProt P34978); test: In vitro functional assay of TP receptor function using rat aorta; assay type: cell-based; conditions: read-out: IC50 (TP receptor antagonist)
T1 construct: In an in vitro functional assay of TP receptor function using rat aorta; from tissue; host or cells: rat aorta
T1 sequence (P34978 1-341): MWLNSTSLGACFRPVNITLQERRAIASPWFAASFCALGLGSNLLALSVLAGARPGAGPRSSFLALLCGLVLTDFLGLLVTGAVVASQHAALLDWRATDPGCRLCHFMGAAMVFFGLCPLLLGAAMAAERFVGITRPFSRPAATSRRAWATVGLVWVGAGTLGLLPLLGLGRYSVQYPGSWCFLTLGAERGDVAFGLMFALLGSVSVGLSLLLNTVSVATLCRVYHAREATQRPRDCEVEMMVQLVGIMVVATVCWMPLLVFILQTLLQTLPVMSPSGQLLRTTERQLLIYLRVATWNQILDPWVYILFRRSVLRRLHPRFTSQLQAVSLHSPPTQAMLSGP

hERG = hERG (Homo sapiens, UniProt Q12809); test: hERG electrophysiological techniques; assay type: cell-based; conditions: variety of electrophysiological techniques
Chain of hERG (Q12809 whole entry): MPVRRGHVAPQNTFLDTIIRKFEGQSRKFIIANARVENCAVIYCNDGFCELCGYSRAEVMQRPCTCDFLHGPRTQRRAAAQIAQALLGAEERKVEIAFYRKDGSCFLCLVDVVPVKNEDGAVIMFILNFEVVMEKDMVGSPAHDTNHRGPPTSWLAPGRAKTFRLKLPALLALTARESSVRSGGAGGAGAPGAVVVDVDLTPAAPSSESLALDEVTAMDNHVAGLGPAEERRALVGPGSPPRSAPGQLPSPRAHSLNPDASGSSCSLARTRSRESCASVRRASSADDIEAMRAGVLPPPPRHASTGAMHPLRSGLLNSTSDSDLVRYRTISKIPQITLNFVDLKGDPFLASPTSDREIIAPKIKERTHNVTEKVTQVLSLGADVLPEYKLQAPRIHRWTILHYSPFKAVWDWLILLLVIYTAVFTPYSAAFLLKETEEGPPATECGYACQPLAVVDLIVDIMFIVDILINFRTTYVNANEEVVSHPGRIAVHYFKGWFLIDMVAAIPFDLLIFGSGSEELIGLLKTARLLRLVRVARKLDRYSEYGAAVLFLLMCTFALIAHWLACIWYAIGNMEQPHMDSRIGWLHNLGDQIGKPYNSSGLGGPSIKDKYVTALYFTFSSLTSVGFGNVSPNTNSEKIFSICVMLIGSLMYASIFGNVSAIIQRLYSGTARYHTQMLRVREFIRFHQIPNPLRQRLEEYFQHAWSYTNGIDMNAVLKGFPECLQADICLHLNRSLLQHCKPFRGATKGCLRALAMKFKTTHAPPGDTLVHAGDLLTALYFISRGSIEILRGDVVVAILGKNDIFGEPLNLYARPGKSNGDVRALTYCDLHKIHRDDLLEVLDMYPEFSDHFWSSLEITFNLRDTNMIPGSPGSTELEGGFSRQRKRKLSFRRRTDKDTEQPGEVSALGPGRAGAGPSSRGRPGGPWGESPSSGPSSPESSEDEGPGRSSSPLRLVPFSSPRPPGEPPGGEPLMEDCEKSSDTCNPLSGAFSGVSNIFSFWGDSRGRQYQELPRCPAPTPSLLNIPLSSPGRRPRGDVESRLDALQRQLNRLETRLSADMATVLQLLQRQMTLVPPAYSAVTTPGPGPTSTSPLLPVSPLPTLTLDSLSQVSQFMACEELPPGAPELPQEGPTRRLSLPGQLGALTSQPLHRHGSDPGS

male mice = test: In vivo mouse micronucleus assay; conditions: oral gavage at doses up to 2000 mg/kg
Description: The potential for genetic toxicology was tested using standard GLP bacterial mutation (Ames), Chinese hamster ovary (CHO) chromosome aberration, and in vivo mouse micronucleus assays: Compound 1 was negative in all tests. […] With the exception of the preliminary 7-day toxicity studies, all studies were performed according to GLP regulations.

[10] = Pharmacokinetics in CD-1 mice; assay type: in vivo; conditions: mouse
Description: (§4) The pharmacokinetics of Compound 1 were assessed in the same species used in the toxicology studies: CD-1 mice, Sprague Dawley rats and beagle dogs. The pharmacokinetics of Compound 1 were also assessed in cynomolgus monkeys.

[11] = Pharmacokinetics in cynomolgus monkeys; assay type: in vivo; conditions: monkey
Description: as §4

in vivo [12] = conditions: dog, po
Description: (§5) Repeat-dose oral toxicity studies of 7- and 14-days duration have been conducted in rats (up to 600 mg/kg/day) and dogs (up to 200 mg/kg/day).

rats [13] = test: 14-day repeat-dose oral toxicity study in rats; conditions: assuming efficacious dose in rats 2.3 mg/kg b.i.d. (Ctrough at EC90)
Description: as §5

Cc1ccc(NC(=O)C2(c3ccc4c(c3)OC(F)(F)O4)CC2)nc1-c1cccc(C(=O)O)c1 [Compound 1, 3-(6-(1-(2,2-difluorobenzo[d][1,3]dioxol-5-yl)cyclopropanecarboxamido)-3-methylpyridin-2-yl)benzoic acid]
MTD at 14 days [1]: > 2000 mg/kg
NOAEL at 14 days [1]: > 2000 mg/kg
organ weights and gross observations at necropsy (mice): no effects on organ weights and no gross observations
MTD at 14 days [2]: > 2000 mg/kg
NOAEL at 14 days [2]: > 2000 mg/kg
organ weights and gross observations at necropsy (rats [3]): no effects on organ weights and no gross observations
AUC0-24hr values, females vs. males ([4]; 500 mg/kg dose group): more than 2 fold
Cmax ([4]; Sprague Dawley, rat, plasma, po, 2000 mg/kg, Male): 306 µg/mL
AUC(0-t) ([4]; Sprague Dawley, rat, plasma, po, 2000 mg/kg, Male, read-out: AUC0-24 h): 6110 µg·h/mL
Tmax ([4]; Sprague Dawley, rat, plasma, po, 2000 mg/kg, Male, read-out: tmax): 24 h
Tmax ([4]; both sexes, rat, plasma, po, 500 to 2000 mg/kg, read-out: time to reach maximum plasma concentrations (tmax)): 4 to 24 h
half-life ([4]; both sexes, rat, plasma, po, could not be calculated at 1000 and 2000 mg/kg, read-out: elimination half-life (t1/2)): 9.4 to 10.8 h
Cmax ([4]; male, rat, plasma, po, males at 500 mg/kg): 135 µg/mL
AUC(0-t) ([4]; male, rat, plasma, po, males at 500 mg/kg, read-out: AUC0-24hr): 1390 µg·h/mL
Cmax ([4]; male, rat, plasma, po, males at 2000 mg/kg): 306 µg/mL
Cmax ([4]; rat, plasma, po, 2000 mg/kg, Female): 305 µg/mL
AUC(0-t) ([4]; rat, plasma, po, 2000 mg/kg, Female, read-out: AUC0-24 h): 6750 µg·h/mL
Tmax ([4]; rat, plasma, po, 2000 mg/kg, Female, read-out: tmax): 10 h
NOAEL at 7 days (in vivo [5]): 300 mg/kg/day
gross lesions and histopathological findings (rats [6]): no test article related gross lesions or histopathological findings
adrenal gland weights (rats [6]; 300 mg/kg/day): higher adrenal gland weights
body weight (rats [6]; 300 mg/kg/day): minor effects on body weight
serum potassium (rats [6]; 300 mg/kg/day): lower serum potassium
urinary pH (rats [6]; 300 mg/kg/day): slight increase in urinary pH
average plasma concentrations ([7]; females): ~190 µM
Cmax ([7]; female, females): ~280 µM
Cmax ([7]; male, males): ~430 µM
AUC(0-t) ([8]; both sexes, rats, at the NOAEL (600 mg/kg/day), read-out: average AUC0-24hr): 3950 µg·h/mL
Cmax ([8]; both sexes, rats, at the NOAEL (600 mg/kg/day), read-out: average Cmax): 222 µg/mL
Tmax ([8]; female, Sprague Dawley, Study Day 1, Female): 4 h
AUC(0-t) ([8]; female, Sprague Dawley, Study Day 1, Female, read-out: AUC0-24 hr): 4430 µg·h/mL
Cmax ([8]; female, Sprague Dawley, Study Day 1, Female, read-out: Cmax): 273 µg/mL
Tmax ([8]; female, Sprague Dawley, Study Day 14, Female): 10 h
AUC(0-t) ([8]; female, Sprague Dawley, Study Day 14, Female, read-out: AUC0-24 hr): 5500 µg·h/mL
Cmax ([8]; female, Sprague Dawley, Study Day 14, Female, read-out: Cmax): 272 µg/mL
Tmax ([8]; male, Sprague Dawley, Study Day 1, Male): 10 h
AUC(0-t) ([8]; male, Sprague Dawley, Study Day 1, Male, read-out: AUC0-24 hr): 2660 µg·h/mL
Cmax ([8]; male, Sprague Dawley, Study Day 1, Male, read-out: Cmax): 164 µg/mL
Tmax ([8]; male, Sprague Dawley, Study Day 14, Male): 10 h
AUC(0-t) ([8]; male, Sprague Dawley, Study Day 14, Male, read-out: AUC0-24 hr): 3220 µg·h/mL
Cmax ([8]; male, Sprague Dawley, Study Day 14, Male, read-out: Cmax): 181 µg/mL
AUC(0-t) ([9]; both sexes, dogs, at the NOAEL (200 mg/kg/day), read-out: average AUC0-24hr): 645 µg·h/mL
Cmax ([9]; both sexes, dogs, at the NOAEL (200 mg/kg/day), read-out: average Cmax): 75 µg/mL
Tmax ([9]; female, beagle, Study Day 1, Female): 4 h
AUC(0-t) ([9]; female, beagle, Study Day 1, Female, read-out: AUC0-24 hr): 573 µg·h/mL
Cmax ([9]; female, beagle, Study Day 1, Female, read-out: Cmax): 56 µg/mL
Tmax ([9]; female, beagle, Study Day 14, Female): 3 h
AUC(0-t) ([9]; female, beagle, Study Day 14, Female, read-out: AUC0-24 hr): 720 µg·h/mL
Cmax ([9]; female, beagle, Study Day 14, Female, read-out: Cmax): 77 µg/mL
Tmax ([9]; male, beagle, Study Day 1, Male): 3 h
AUC(0-t) ([9]; male, beagle, Study Day 1, Male, read-out: AUC0-24 hr): 691 µg·h/mL
Cmax ([9]; male, beagle, Study Day 1, Male, read-out: Cmax): 77 µg/mL
Tmax ([9]; male, beagle, Study Day 14, Male): 3 h
AUC(0-t) ([9]; male, beagle, Study Day 14, Male, read-out: AUC0-24 hr): 598 µg·h/mL
Cmax ([9]; male, beagle, Study Day 14, Male, read-out: Cmax): 72 µg/mL
pIC50 (TP receptor): 5.00 to 6.00
pIC50 (hERG): ≤ 4.52
number of micronucleated polychromatic erythrocytes (male mice): negative; also recorded: did not induce a significant increase
clearance [10]: very low clearance
clearance [11]: very low clearance
NOAEL at 14 days (in vivo [12]): 200 mg/kg/day
projected safety margin from the rat NOAEL (rats [13]): 130 ×
